Assay results taken from patent US20200283532A1, “TUMOUR-TARGETING PEPTIDE VARIANTS” (Cancer Research Technology Limited, priority 2017, published 2020).
Read-outs that look alike come from different tables or passages of the source.

What was measured:
[1] = tested on: A375Pβ6 cells; assay type: cell-based
Method: Cells were trypsinised and resuspended into DMEM (serum-free media) to prepare a cell suspension of 4×10^6 cells/ml. From this point on everything was kept on ice. 50 μl of cell suspension were aliquoted into each flow tube. Peptides were diluted in ice-cold serum-free media to 200 nM giving the final concentration of 100 nM when 50 μl was added to the cell samples. The peptides were left on ice for 15 minutes then washed twice with flow media and centrifuged for 3 minutes at 1200 rpm in between each wash step. Mouse anti-biotin (50 μl at 1:200) was added to each sample for 15 minutes, then wash steps were repeated. Apart from the 0 time point, each of the time point samples were put in the incubator at 37° C. and at 15, 30 and 45 minutes the cells were fixed in 4% formaldehyde in PBS for 10 minutes, washed once in PBS and 0.1% Triton X-100 detergent added for 5 minutes, before washing in PBS again. Goat anti-mouse IgG conjugated to AlexaFLUOR 488 (1:250) was added (50 μl) to each sample and left for 15 minutes on ice in the dark. Samples were washed as above and resuspended to 30 μl. Samples were examined on an Imagestream X Mark II (Amnis, Merck) Imagestream images were assessed for internalisation compared with the 0 minute samples using on board software.
Internalisation Assay Method—Flow Cytometry
Cells were prepared as above except that no detergent was added prior to detecting the biotin with antibodies. Samples were analysed on a FACScalibur (Bekton-Dickinson) cytometer.
To assess ability to be internalized by cells at 37° C. (and thus potential vectors for therapies) we used Imagestream® cytometry and flow cytometry. Imagestream® takes a fluorescence image of each cell (FIG. 2C) enabling image analysis of the fluorescence on the surface versus the intracellular compartment. Histograms in FIG. 2C plot internalization relative to the 0 minute time point. For flow cytometry we monitored the loss of surface expression as the peptides were internalized.

[2] = molecular target: T1, αvβ6 integrin (A375Pβ6 cells) (Homo sapiens, UniProt P06756+P18564); assay: Level of binding of biotinylated peptides to A375Pβ6 cells by flow cytometry; conditions: mean of up to four experiments; for A) Affinity: mean activity relative to biotinylated A20FMDV2 (100 nM): binding to A375Pβ6 at 100 nM, flow cytometry, commercial biotinylated A20FMDV2 = 1.00
T1 construct: expressed in transfected cells; host or cells: A375Pβ6 (transduced A375P melanoma cells; control line A375Ppuro)
T1 sequence (P06756 31-889 limits assumed, stated change not applied): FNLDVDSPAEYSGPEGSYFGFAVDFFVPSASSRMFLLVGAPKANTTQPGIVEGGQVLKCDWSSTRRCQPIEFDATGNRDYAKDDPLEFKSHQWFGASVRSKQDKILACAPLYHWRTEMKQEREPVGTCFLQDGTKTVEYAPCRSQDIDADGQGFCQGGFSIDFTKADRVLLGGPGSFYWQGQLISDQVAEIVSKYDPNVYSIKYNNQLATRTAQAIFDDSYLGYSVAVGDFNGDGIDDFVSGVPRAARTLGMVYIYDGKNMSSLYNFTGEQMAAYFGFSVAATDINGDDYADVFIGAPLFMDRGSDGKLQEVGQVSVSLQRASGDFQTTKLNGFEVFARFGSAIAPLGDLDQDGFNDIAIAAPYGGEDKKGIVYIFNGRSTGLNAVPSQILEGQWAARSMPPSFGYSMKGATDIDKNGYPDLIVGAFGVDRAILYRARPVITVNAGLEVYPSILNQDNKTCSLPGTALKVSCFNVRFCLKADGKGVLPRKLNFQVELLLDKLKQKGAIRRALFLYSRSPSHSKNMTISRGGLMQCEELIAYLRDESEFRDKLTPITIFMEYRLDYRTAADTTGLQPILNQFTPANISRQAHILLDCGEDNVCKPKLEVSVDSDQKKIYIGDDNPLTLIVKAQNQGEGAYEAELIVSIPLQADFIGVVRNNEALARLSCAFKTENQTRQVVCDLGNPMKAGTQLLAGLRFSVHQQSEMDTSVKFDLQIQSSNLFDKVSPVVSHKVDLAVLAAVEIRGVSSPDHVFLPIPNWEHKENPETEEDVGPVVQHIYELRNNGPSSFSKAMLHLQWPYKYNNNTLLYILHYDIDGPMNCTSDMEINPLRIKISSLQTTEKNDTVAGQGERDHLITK
T1 sequence (P06756 891-1048 limits assumed, stated change not applied): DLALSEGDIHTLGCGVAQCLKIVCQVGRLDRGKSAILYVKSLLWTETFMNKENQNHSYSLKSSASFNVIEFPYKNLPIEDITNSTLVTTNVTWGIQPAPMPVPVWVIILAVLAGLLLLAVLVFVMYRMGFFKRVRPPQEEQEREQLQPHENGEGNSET
T1 sequence (P18564 22-788, stated change not applied): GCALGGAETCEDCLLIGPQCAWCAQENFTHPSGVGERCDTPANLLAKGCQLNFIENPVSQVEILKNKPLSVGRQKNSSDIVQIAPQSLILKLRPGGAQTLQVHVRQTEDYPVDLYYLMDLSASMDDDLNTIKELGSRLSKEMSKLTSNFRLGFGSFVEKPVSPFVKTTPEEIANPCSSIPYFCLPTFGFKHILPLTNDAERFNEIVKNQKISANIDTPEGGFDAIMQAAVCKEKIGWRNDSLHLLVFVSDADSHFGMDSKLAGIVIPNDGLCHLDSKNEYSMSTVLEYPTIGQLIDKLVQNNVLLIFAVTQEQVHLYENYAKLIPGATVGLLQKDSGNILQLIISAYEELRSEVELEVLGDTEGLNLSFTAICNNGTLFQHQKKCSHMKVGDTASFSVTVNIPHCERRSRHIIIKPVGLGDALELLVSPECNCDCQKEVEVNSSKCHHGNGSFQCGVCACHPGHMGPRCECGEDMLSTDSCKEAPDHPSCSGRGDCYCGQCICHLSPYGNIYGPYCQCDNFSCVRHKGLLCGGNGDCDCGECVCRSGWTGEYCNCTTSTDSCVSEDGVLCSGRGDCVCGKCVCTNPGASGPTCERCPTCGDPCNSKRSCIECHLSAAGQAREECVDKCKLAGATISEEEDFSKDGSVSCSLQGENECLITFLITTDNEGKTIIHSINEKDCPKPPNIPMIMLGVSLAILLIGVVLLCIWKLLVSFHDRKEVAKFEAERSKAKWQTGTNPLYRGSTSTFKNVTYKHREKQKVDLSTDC

[3] = tested on: A375Pβ6 (αvβ6) and A375Puro (control) xenografts; assay: Biodistribution of 111In-DTPA labelled peptides in tumour-bearing mice; assay type: in vivo, female CD1 Nu/Nu mice; conditions: 111In-DTPA peptide iv, mean ± SEM
Method: 2×10^6 cells in 100 μl were injected subcutaneously into the shoulders of female CD1 Nu/Nu mice. Tumours were grown subcutaneously on the left (A375Puro) and on the right (A375136) shoulder over two weeks. Once tumours had grown to approximately 5 mm diameter peptides were radiolabelled with Indium-111, and analysed by Radio-HPLC to determine labelling efficiency. The labelled peptides were diluted in sterile PBS/BSA and were dosed to give 0.3MBq per animal. Mice were then intravenously (tail-vein) injected with the radiolabelled peptide and are culled after 1 hour. Blood, organs and tumours were removed, weighed and residual activity was measured on a gamma counter (LKB Compugamma) the next day. Data were expressed as % Injected Dose/g tissue (% ID/g).
Immunocompromised mice (n=3-5) bearing A375Ppuro and A37546 tumours on opposite shoulders were given intravenous (iv) injections of […] of radiolabelled peptides 22-26 then killed 1 h later. Major organs and blood were collected immediately, weighed, and radioactivity determined. The data in Table 3 show the behaviour of the five DTPA-conjugated peptides tested; data are expressed as mean % injected dose/g tissue.

| Substance | B) Internalisation: mean % internalisation at 45 min relative to biotinylated A20FMDV2 (100 nM) [1] | Relative Activity (A × B) [1] | A) Affinity: mean activity relative to biotinylated A20FMDV2 (100 nM) [2] | further results |
| --- | --- | --- | --- | --- |
| AcHN-NK(Biotin)VPNLRGDLQVLAQKVART-NH2 [Peptide 18] | 0.87 ± 0.12 | 1.09 | 1.25 ± 0.26 | Relative Activity value higher than the control peptide [1]: 9% |
| AcHN-NK(Biotin)VPNLRGDLQVLAQKVART-OH [Peptide 16] | 1.05 ± 0.24 | 1.55 |  | Relative Activity value higher than the control peptide [1]: 55% |
| DTPA-GNK(Biotin)VPNLRGDLQVLAQKVART-OH [Peptide 23] |  |  | 1.28 ± 0.23 | Relative Activity (A × B) ([1]; binding affinity value multiplied by amount internalized, commercial biotinylated A20FMDV2 = 1.00): 1.24; B) Internalisation: mean % internalisation at 45 min relative to biotinylated A20FMDV2 (100 nM) ([1]; flow cytometry, 100 nM, 45 min at 37° C., commercial biotinylated A20FMDV2 = 1.00): 0.97 ± 0.11; Bio-distribution, Blood ([3]; 1 h): 0.5 ± 0.16 % ID/g; Bio-distribution, Heart ([3]; 1 h): 0.6 ± 0.16 % ID/g; Bio-distribution, Intestines ([3]; 1 h): 3.8 ± 0.98 % ID/g; Bio-distribution, Liver ([3]; 1 h): 0.4 ± 0.06 % ID/g; Bio-distribution, Lung ([3]; 1 h): 4.4 ± 0.72 % ID/g; Bio-distribution, Muscle ([3]; 1 h): 0.8 ± 0.07 % ID/g; Bio-distribution, Pancreas ([3]; 1 h): 0.5 ± 0.13 % ID/g; Bio-distribution, Spleen ([3]; 1 h): 0.2 ± 0.07 % ID/g; Bio-distribution, Stomach ([3]; 1 h): 6.4 ± 2.33 % ID/g; Bio-distribution, Tail ([3]; 1 h): 4.3 ± 2.85 % ID/g; Bio-distribution, Tumour (Control) ([3]; A375Puro xenograft, mice culled after 1 h): 0.5 ± 0.15 % ID/g; Bio-distribution, Tumour (αvβ6) ([3]; A375Pβ6 xenograft, mice culled after 1 h): 3.7 ± 0.29 % ID/g |
| H2N-NK (Biotin) VPNLRGDLQV[norvaline]AQKVART-OH [Peptide 8] | 1.09 ± 0.17 | 0.84 | 0.77 ± 0.52 |  |
| H2N-NK (Biotin) VPNLRGDLQV[tert-butyl-alanine]AQKVART-OH [Peptide 11] | 1.03 ± 0.14 | 0.62 | 0.60 ± 0.23 |  |
| H2N-NK(Biotin)VPNLRGDLQVLAQ-N-MeKVART-OH [Peptide 6] | 0.89 ± 0.32 | 0.32 | 0.37 ± 0.12 |  |
| H2N-NK(Biotin)VPNLRGDLQVLAQKVART-NH2 [Peptide 17] | 1.07 ± 0.40 | 1.31 |  | Relative Activity value higher than the control peptide [1]: 31% |
| H2N-NK(Biotin)VPNLRGDLQVLAQKVART-OH [Peptide 1] | 0.84 ± 0.14 | 0.93 | 1.11 ± 0.15 |  |
| H2N-NK(Biotin)VPNLRGDLQVLAQKVARt-OH [Peptide 20] | 0.99 ± 0.25 | 0.53 | 0.53 ± 0.44 |  |
| H2N-NK(Biotin)VPNLRGDLQVLAQ[diaminopropionic acid]VART-OH [Peptide 5] | 0.96 ± 0.31 | 0.76 | 0.79 ± 0.14 |  |
| H2N-NK(Biotin)VPNLRGDLQVLAQ[ornithine]VART-OH [Peptide 3] | 0.86 ± 0.29 | 0.96 | 1.12 ± 0.16 |  |
| H2N-NK(Biotin)VPNLRGDLQVLAQkVART-OH [Peptide 2] | 0.78 ± 0.15 | 0.87 | 1.11 ± 0.15 |  |
| H2N-NK(Biotin)VPNLRGDLQV[2-amino-3-ethylpentanoic acid]AQKVART-OH [Peptide 13] | 0.52 ± 0.23 | 0.37 | 0.70 ± 0.33 |  |
| H2N-NK(Biotin)VPNLRGDLQV[adamantylglycine]AQKVART-OH [Peptide 15] | 1.07 ± 0.18 | 0.55 | 0.51 ± 0.28 |  |
| H2N-NK(Biotin)VPNLRGDLQV[allylglycine]AQKVART-OH [Peptide 10] | 0.82 ± 0.25 | 0.48 | 0.58 ± 0.25 |  |
| H2N-NK(Biotin)VPNLRGDLQV[aminoisobutyric acid]AQKVART-OH [Peptide 7] | 1.11 ± 0.3 | 1.19 | 1.07 ± 0.37 |  |
| H2N-NK(Biotin)VPNLRGDLQV[cyclohexylalanine]AQKVART-OH [Peptide 14] | 1.01 ± 0.32 | 0.62 | 0.62 ± 0.06 |  |
| H2N-NK(Biotin)VPNLRGDLQV[homoleucine]AQKVART-OH [Peptide 12] | 0.66 ± 0.14 | 0.27 | 0.45 ± 0.22 |  |
| H2N-NK(Biotin)VPNLRGDLQV[norleucine]AQKVART-OH [Peptide 9] | 1.15 ± 0.04 | 1.33 | 1.16 ± 0.29 |  |
| H2N-nK(Biotin)VPNLRGDLQVLAQKVART-OH [Peptide 19] | 0.89 ± 0.12 |  |  | Relative Activity value higher than the control peptide [1]: 27%; Average binding activity higher than the parent (commercially obtained biotinylated-A20FMDV2) ([2]; A375Pβ6, 100 nM): 43% |
| H2N-nK(Biotin)VPNLRGDLQVLAQKVARt-OH [Peptide 21] | 0.87 ± 0.27 |  |  | Relative Activity value higher than the control peptide [1]: 37% |
| N-NK(Biotin)VPNLRGDLQVLAQ[diaminobutyric acid]VART-OH [Peptide 4] | 0.86 ± 0.29 | 0.86 | 1.00 ± 0.07 |  |
